Measurements as given in ChEMBL document CHEMBL3885861, “Open TG-GATES”.

Species on record: Rattus norvegicus
Assay: Open TG-GATES - Regimen: Single
Format: toxicity, organism-based, Sprague-Dawley
Set-up: regimen Single, gender Male, age 6 weeks
Details: in vivo, po, 30 mg/kg, route gavage, dose level High; for APTT / Bas / Eos / Fbg / Hb / Ht / Lym / MCH / MCHC / Mono / Neu / Plat / RBC / Ret / WBC: tissue Blood; for KIDNEY_L / KIDNEY_R / KIDNEY_TOTAL: tissue Kidney; for LIVER: tissue Liver; for ALP / ALT / AST / BUN / CRE / Ca / Cl / DBIL / GLC / IP / K / LDH / Na / PL / RALB / TBIL / TC / TG / TP / gamma-GTP: tissue Plasma

For `O=C(CCCN1CCC(O)(c2ccc(Cl)cc2)CC1)c1ccc(F)cc1` [HALOPERIDOL], which TERMINAL_BW (3 h) is on record?
Its TERMINAL_BW is 205 g.

And the APTT (3 h)?
The APTT was 17.2 s.

What about the Bas (3 h) of the same molecule?
Its Bas is 0%.

What about the Eos (3 h) of the same molecule?
Its Eos is 0.2%.

What about the Fbg (3 h) of the same molecule?
The Fbg was 207.6 mg/dL.

What about the Hb (3 h) of the same molecule?
Its Hb is 12.8 g/dL.

What about the Ht (3 h) of the same molecule?
Its Ht is 38.4%.

What about the Lym (3 h) of the same molecule?
The Lym was 70.4%.

What about the MCH (3 h) of the same molecule?
The MCH was 21.5 pg.

What about the MCHC (3 h) of the same molecule?
The MCHC was 33.3%.

And the Mono (3 h)?
The Mono was 6%.

And the Neu (3 h)?
The Neu was 23.4%.

What about the Plat (3 h) of the same molecule?
Its Plat is 97 x10_4/uL.

And the RBC (3 h)?
Its RBC is 593.6 x10_4/ul.

What about the Ret (3 h) of the same molecule?
Its Ret is 8.9%.

And the WBC (3 h)?
The WBC was 57.7 x10_2/uL.

What about the KIDNEY_L (3 h) of the same molecule?
Its KIDNEY_L is 0.9 g.

And the KIDNEY_R (3 h)?
The KIDNEY_R was 0.9 g.

And the KIDNEY_TOTAL (3 h)?
Its KIDNEY_TOTAL is 1.9 g.

And the LIVER (3 h)?
Its LIVER is 9.5 g.

What about the ALP (3 h) of the same molecule?
The ALP was 676.8 IU/L.

And the ALT (3 h)?
The ALT was 31.4 IU/L.

And the AST (3 h)?
The AST was 52 IU/L.

What about the BUN (3 h) of the same molecule?
Its BUN is 12.2 mg/dL.

What about the CRE (3 h) of the same molecule?
Its CRE is 0.5 mg/dL.

And the Ca (3 h)?
Its Ca is 10.7 mg/dL.

And the Cl (3 h)?
The Cl was 108.8 meq/L.

And the DBIL (3 h)?
Its DBIL is 0.018 mg/dL.

What about the GLC (3 h) of the same molecule?
The GLC was 222.8 mg/dL.

What about the IP (3 h) of the same molecule?
Its IP is 10.5 mg/dL.

What about the K (3 h) of the same molecule?
Its K is 4.4 meq/L.

And the LDH (3 h)?
Its LDH is 166.8 IU/L.

And the Na (3 h)?
The Na was 140.8 meq/L.

What about the PL (3 h) of the same molecule?
Its PL is 157.6 mg/dL.

What about the RALB (3 h) of the same molecule?
Its RALB is 3.7 g/dL.

And the TBIL (3 h)?
The TBIL was 0.3 mg/dL.

What about the TC (3 h) of the same molecule?
The TC was 92.2 mg/dL.

And the TG (3 h)?
The TG was 34.6 mg/dL.

What about the TP (3 h) of the same molecule?
Its TP is 5.6 g/dL.

What about the gamma-GTP (3 h) of the same molecule?
The gamma-GTP was 1.4 IU/L.

And the TERMINAL_BW (6 h)?
Its TERMINAL_BW is 194.4 g.

What about the APTT (6 h) of the same molecule?
The APTT was 17.2 s.

What about the Bas (6 h) of the same molecule?
Its Bas is 0%.

And the Eos (6 h)?
The Eos was 0.4%.

And the Fbg (6 h)?
Its Fbg is 198.5 mg/dL.

And the Hb (6 h)?
The Hb was 13.9 g/dL.

What about the Ht (6 h) of the same molecule?
The Ht was 41.3%.

What about the Lym (6 h) of the same molecule?
The Lym was 72.6%.

And the MCH (6 h)?
Its MCH is 21.4 pg.

What about the MCHC (6 h) of the same molecule?
The MCHC was 33.7%.

And the Mono (6 h)?
Its Mono is 4.4%.

And the Neu (6 h)?
The Neu was 22.6%.

And the Plat (6 h)?
Its Plat is 110.6 x10_4/uL.

What about the RBC (6 h) of the same molecule?
Its RBC is 647.2 x10_4/ul.

And the Ret (6 h)?
The Ret was 9.3%.

What about the WBC (6 h) of the same molecule?
The WBC was 75.5 x10_2/uL.

And the KIDNEY_L (6 h)?
Its KIDNEY_L is 0.9 g.

What about the KIDNEY_R (6 h) of the same molecule?
The KIDNEY_R was 0.9 g.

What about the KIDNEY_TOTAL (6 h) of the same molecule?
Its KIDNEY_TOTAL is 1.8 g.

And the LIVER (6 h)?
The LIVER was 8.9 g.

What about the ALP (6 h) of the same molecule?
The ALP was 742.6 IU/L.

What about the ALT (6 h) of the same molecule?
Its ALT is 30.6 IU/L.

And the AST (6 h)?
Its AST is 59.8 IU/L.

And the BUN (6 h)?
Its BUN is 9.2 mg/dL.

And the CRE (6 h)?
The CRE was 0.5 mg/dL.

What about the Ca (6 h) of the same molecule?
Its Ca is 10.1 mg/dL.

What about the Cl (6 h) of the same molecule?
Its Cl is 108.2 meq/L.

And the DBIL (6 h)?
The DBIL was 0.036 mg/dL.

And the GLC (6 h)?
Its GLC is 215.6 mg/dL.

What about the IP (6 h) of the same molecule?
Its IP is 10.1 mg/dL.

What about the K (6 h) of the same molecule?
The K was 4.6 meq/L.

And the LDH (6 h)?
Its LDH is 179.8 IU/L.

What about the Na (6 h) of the same molecule?
Its Na is 140 meq/L.

And the PL (6 h)?
Its PL is 133.6 mg/dL.

What about the RALB (6 h) of the same molecule?
The RALB was 3.6 g/dL.

And the TBIL (6 h)?
Its TBIL is 0.3 mg/dL.

And the TC (6 h)?
Its TC is 77.8 mg/dL.

And the TG (6 h)?
The TG was 20 mg/dL.

What about the TP (6 h) of the same molecule?
The TP was 5.5 g/dL.

And the gamma-GTP (6 h)?
The gamma-GTP was 1.2 IU/L.

And the TERMINAL_BW (9 h)?
Its TERMINAL_BW is 194.2 g.

And the APTT (9 h)?
Its APTT is 16.9 s.

What about the Bas (9 h) of the same molecule?
The Bas was 0%.

And the Eos (9 h)?
The Eos was 1.4%.

What about the Fbg (9 h) of the same molecule?
The Fbg was 216 mg/dL.

What about the Hb (9 h) of the same molecule?
The Hb was 13.6 g/dL.

And the Ht (9 h)?
Its Ht is 40.7%.

What about the Lym (9 h) of the same molecule?
The Lym was 69%.

What about the MCH (9 h) of the same molecule?
Its MCH is 21.9 pg.

What about the MCHC (9 h) of the same molecule?
The MCHC was 33.4%.

And the Mono (9 h)?
The Mono was 5.6%.

And the Neu (9 h)?
The Neu was 24%.

What about the Plat (9 h) of the same molecule?
Its Plat is 104 x10_4/uL.

And the RBC (9 h)?
The RBC was 623 x10_4/ul.

What about the Ret (9 h) of the same molecule?
Its Ret is 8.6%.

What about the WBC (9 h) of the same molecule?
Its WBC is 59.3 x10_2/uL.

And the KIDNEY_L (9 h)?
The KIDNEY_L was 0.9 g.

What about the KIDNEY_R (9 h) of the same molecule?
The KIDNEY_R was 0.9 g.

What about the KIDNEY_TOTAL (9 h) of the same molecule?
Its KIDNEY_TOTAL is 1.8 g.

What about the LIVER (9 h) of the same molecule?
The LIVER was 8.3 g.

And the ALP (9 h)?
The ALP was 898.8 IU/L.

And the ALT (9 h)?
The ALT was 26.8 IU/L.

And the AST (9 h)?
Its AST is 53.2 IU/L.

And the BUN (9 h)?
Its BUN is 10.8 mg/dL.

And the CRE (9 h)?
Its CRE is 0.5 mg/dL.

What about the Ca (9 h) of the same molecule?
Its Ca is 9.9 mg/dL.

What about the Cl (9 h) of the same molecule?
Its Cl is 108.8 meq/L.

And the DBIL (9 h)?
The DBIL was 0.012 mg/dL.

And the GLC (9 h)?
The GLC was 201.2 mg/dL.

And the IP (9 h)?
Its IP is 10.8 mg/dL.

And the K (9 h)?
The K was 4.8 meq/L.

What about the LDH (9 h) of the same molecule?
The LDH was 180.8 IU/L.

And the Na (9 h)?
Its Na is 140.6 meq/L.

What about the PL (9 h) of the same molecule?
The PL was 137.2 mg/dL.

What about the RALB (9 h) of the same molecule?
The RALB was 3.9 g/dL.

What about the TBIL (9 h) of the same molecule?
Its TBIL is 0.3 mg/dL.

What about the TC (9 h) of the same molecule?
Its TC is 75.8 mg/dL.

And the TG (9 h)?
Its TG is 21.4 mg/dL.

And the TP (9 h)?
Its TP is 5.6 g/dL.

And the gamma-GTP (9 h)?
The gamma-GTP was 1.2 IU/L.

And the TERMINAL_BW (24 h)?
Its TERMINAL_BW is 194.5 g.

What about the APTT (24 h) of the same molecule?
Its APTT is 15.2 s.

And the Bas (24 h)?
Its Bas is 0%.

What about the Eos (24 h) of the same molecule?
Its Eos is 0.6%.

And the Fbg (24 h)?
Its Fbg is 200.2 mg/dL.

And the Hb (24 h)?
The Hb was 14.5 g/dL.

What about the Ht (24 h) of the same molecule?
The Ht was 43.1%.

And the Lym (24 h)?
Its Lym is 80.8%.

What about the MCH (24 h) of the same molecule?
The MCH was 21.4 pg.

And the MCHC (24 h)?
The MCHC was 33.7%.

And the Mono (24 h)?
Its Mono is 5.8%.

And the Neu (24 h)?
Its Neu is 12.8%.

And the Plat (24 h)?
The Plat was 118.2 x10_4/uL.

And the RBC (24 h)?
Its RBC is 680 x10_4/ul.

And the Ret (24 h)?
Its Ret is 7.7%.

What about the WBC (24 h) of the same molecule?
Its WBC is 59.7 x10_2/uL.

What about the KIDNEY_L (24 h) of the same molecule?
The KIDNEY_L was 0.9 g.

What about the KIDNEY_R (24 h) of the same molecule?
Its KIDNEY_R is 0.9 g.

And the KIDNEY_TOTAL (24 h)?
Its KIDNEY_TOTAL is 1.8 g.

What about the LIVER (24 h) of the same molecule?
The LIVER was 8.9 g.

And the ALP (24 h)?
The ALP was 744.8 IU/L.

And the ALT (24 h)?
The ALT was 30.2 IU/L.

And the AST (24 h)?
The AST was 67.8 IU/L.

What about the BUN (24 h) of the same molecule?
Its BUN is 28.6 mg/dL.

And the CRE (24 h)?
The CRE was 0.5 mg/dL.

What about the Ca (24 h) of the same molecule?
Its Ca is 11 mg/dL.

And the Cl (24 h)?
The Cl was 105 meq/L.

And the DBIL (24 h)?
Its DBIL is 0.044 mg/dL.

What about the GLC (24 h) of the same molecule?
The GLC was 181 mg/dL.

And the IP (24 h)?
The IP was 9.7 mg/dL.

And the K (24 h)?
The K was 5.3 meq/L.

What about the LDH (24 h) of the same molecule?
The LDH was 216.4 IU/L.

What about the Na (24 h) of the same molecule?
Its Na is 140 meq/L.

And the PL (24 h)?
The PL was 142.8 mg/dL.

What about the RALB (24 h) of the same molecule?
The RALB was 4.1 g/dL.

And the TBIL (24 h)?
The TBIL was 0.4 mg/dL.

And the TC (24 h)?
Its TC is 77 mg/dL.

What about the TG (24 h) of the same molecule?
The TG was 95 mg/dL.

What about the TP (24 h) of the same molecule?
The TP was 6.1 g/dL.

And the gamma-GTP (24 h)?
The gamma-GTP was 1 IU/L.
